Measurements as given in article PMC9289672, “Optimization of Antibacterial Activity in Tibetan Swine α-Helix Peptide TP by Site-Directed Mutagenesis” (Frontiers in Microbiology, 2022).
Where no end group is shown, it is not given here.

Key:
[1] = system: E. coli 25922; experiment: In vivo efficacy assay (peritonitis-sepsis model); settings: C57BL/6 mice, i.p. E. coli 25922; peptide 5 mg/kg i.p. at 0 and 1 h, colistin 1 mg/kg; 12 h after infection; vs infected group, p < 0.05
Protocol: A total of 32 female C57BL/6 mice (weighing about 20 g) aged from 6 to 8 weeks were selected. The mice in each group were divided into 4 groups by blind method (n = 8): […] (d) treatment group (E. coli 25922 + Colistin). Mice in control group were intraperitoneally injected with 100 μl normal saline, and mice in other groups were intraperitoneally injected with 100 μl (~1 × 10^8 CFU/ml) diluted bacterial solution. The peptide treatment group was intraperitoneally injected with TP(i+4) 1&2&5 (5 mg/kg) at 0 and 1 h after infection, and the control group and antibiotic treatment group were injected with normal saline and colistin (1 mg/kg), respectively. The mice were then euthanized 12 h after infection. After weighing liver, lung, spleen, and kidney, the bacterial load of each organ was determined, and the histopathological changes in the organ sections were analyzed by H&E staining. Serum levels of inflammatory factors IL-6, IL-1β, and TNF-α were detected by ELISA kits (Shanghai Jinma).

[2] = system: E. coli 25922; experiment: Drug resistance assessment (continuous culture at sub-MIC); type: cell-based, Escherichia coli; settings: E. coli 25922, serial passage at sub-MIC
Protocol: Continuous culture method was used to evaluate the drug resistance of peptides. Colistin was used as model antibiotic to test the resistance of E. coli 25922. First, minimum inhibitory concentration (MIC) was determined for peptide and Colistin Next, the bacteria with each sub-MIC concentration were diluted to 2 × 10^5 CFU/ml with MHB for the MIC determination of the next passage. The process was repeated 30 times.

[3] = system: Pseudomonas aeruginosa ATCC 27853
From the text: (§1) The bacteria strains Escherichia coli ATCC 25922, Escherichia coli UB1005, Salmonella typhimurium ATCC 14028, Salmonella typhimurium C7731, Pseudomonas aeruginosa ATCC 27853, Pseudomonas aeruginosa PAO1, Staphylococcus aureus ATCC 29213, Staphylococcus aureus ATCC 25923, Methicillin-resistant Staphylococcus aureus (MRSA) 43300, Enterococcus faecalis ATCC 29212, and Staphylococcus epidermidis ATCC 12228 were obtained from the College of Veterinary Medicine, Northeast Agricultural University (Harbin, China).
(§2) The bacteria were cultured overnight in the MHB medium and transferred to the new MHB the next day until the bacteria reached the exponential growth stage. The bacteria were diluted with MHB to 2 × 10^5 CFU/ml. About 50 μl of polypeptide and equal volume of bacterial suspension was added to a 96-well plate to give the final concentration of polypeptide between 1 and 128 μm. The last two columns are negative (MHB only) and positive (bacterial and MHB) controls and incubated at 37°C for 18–24 h. Optical density was measured at an absorbance wavelength of 492 nm using a microplate reader (Tecan GENios F129004, Tecan, Austria). At least three independent measurements were taken. Each trial was conducted two times in parallel. A total of three independent assays were carried out.

[4] = system: Staphylococcus aureus ATCC 25923
From the text: as §1, §2

[5] = system: Salmonella typhimurium C7731; settings: MHB, bacteria diluted to 2 × 10^5 CFU/ml, peptide 1-128 μm, 37°C 18-24 h, OD 492 nm; three independent assays, two in parallel
From the text: as §1, §2

[6] = system: Escherichia coli ATCC 25922
From the text: as §1, §2

[7] = system: Pseudomonas aeruginosa PAO1
From the text: as §1, §2

[8] = system: Staphylococcus epidermidis ATCC 12228
From the text: as §1, §2

[9] = system: Staphylococcus aureus ATCC 29213
From the text: as §1, §2

[10] = system: Escherichia coli UB1005; settings: MHB, bacteria diluted to 2 × 10^5 CFU/ml, peptide 1-128 μm, 37°C 18-24 h, OD 492 nm; three independent assays, two in parallel
From the text: as §1, §2

[11] = system: Enterococcus faecalis ATCC 29212
From the text: as §1, §2

[12] = system: Methicillin-resistant Staphylococcus aureus (MRSA) 43300; settings: Methicillin-resistant 43300
From the text: as §1, §2

[13] = system: Salmonella typhimurium ATCC 14028
From the text: as §1, §2

[14] = system: S. aureus 29213; type: cell-based, Staphylococcus aureus; settings: 29213, 4 h
Protocol: (§3) The salt and serum stability of polypeptides were determined by improved MIC method (Lv et al., [2014]). Peptides were incubated with BSA containing different final concentrations of salt ions (150 mM NaCl, 4.5 mM KCl, 6 μm NH4Cl, 8 μm ZnCl2, 1 mM MgCl2, 2 mM CaCl2, and 4 μm FeCl3) (Wang et al., [2018]). To determine the stability of the peptide in serum, peptide was incubated with different proportions of serum (50%, 100%) at 37°C for 4 h. The following steps are the same as those for antimicrobial activity. Each trial was conducted two times in parallel. A total of three independent assays were carried out.

[15] = system: IPEC-J2 and HEK 293T cells
Protocol: (§5) The cytotoxicity of each peptide was assessed with IPEC-J12 and HEK 293T cells. […] Each trial was conducted two times in parallel. A total of three independent assays were carried out.

[16] = system: hRBCs (human red blood cells); experiment: Hemolytic activity; settings: three independent assays, two in parallel
Protocol: as §5

[17] = system: all strains in Table 2; experiment: Geometric mean of MIC and therapeutic index; type: cell-based; settings: MHC/GM; 128 μm used when 50% hemolysis not observed at 128 μm
Protocol: as §2
Trp is a hydrophobic amino acid with aromatic side chains. It is a special amino acid in peptide design. Previous studies have pointed out that introducing amino acids will also bring toxicity while improving activity. Therefore, at the beginning of the design, we predicted that selecting Trp as hydrophobic amino acid to substitute H-H position would bring certain toxicity to the peptide. Thus, as expected, the introduction of Trp increases the activity and toxicity of these peptides. […] Meanwhile, the virulence of TP(i+4) 1&2&5&6 and TP(i+4) 1&2&6&7 was lower than that of TP(i+4) 1&2&5&7. We infer that the location of hydrophobic centers can effectively reduce peptide toxicity by Trp substitution. For further evaluating the cell selectivity of the peptides, we also calculated the SI which defined as the ratio of MHC to the geometric mean (GM) (Dufourc, [2008]).

[18] = system: Gram-negative bacteria; experiment: Geometric mean of MIC and therapeutic index; type: cell-based; settings: MHC/GM; 128 μm used when 50% hemolysis not observed at 128 μm
Protocol: as §2
(§4) Trp is a hydrophobic amino acid with aromatic side chains. It is a special amino acid in peptide design. Previous studies have pointed out that introducing amino acids will also bring toxicity while improving activity. […] For further evaluating the cell selectivity of the peptides, we also calculated the SI which defined as the ratio of MHC to the geometric mean (GM) (Dufourc, [2008]).

[19] = system: Gram-positive bacteria; experiment: Geometric mean of MIC and therapeutic index; type: cell-based; settings: MHC/GM; 128 μm used when 50% hemolysis not observed at 128 μm
Protocol: as §2, §4

[20] = system: E. coli 25922; type: cell-based, Escherichia coli; settings: 25922, 4 h
Protocol: as §3

Colistin
bacterial load in organs (liver, kidney, spleen, lungs) [1]: significantly reduced
generation at which resistance appeared [2]: sixth generation
increase in MIC values after 30 generations ([2]; 30 passages): 256 fold

ASVVKKLWKGVWKLLK-NH2 [TP(i+4) 1&2&5]
MIC, P. aeruginosa 27853 [3]: 2 µM
MIC, S. aureus 25923 [4]: 2 µM
MIC, S. typhimurium 7731 [5]: 4 µM
MIC, E. coli 25922 [6]: 1 µM
MIC, P. aeruginosa PAO1 [7]: 2 µM
MIC, S. epidermidis 12228 [8]: 2 µM
MIC, S. aureus 29213 [9]: 2 µM
MIC, E. coli UB1005 [10]: 2 µM
MIC, E. faecalis 29212 [11]: 2 µM
MIC, S. aureus 43300 [12]: 2 µM
MIC, S. typhimurium 14028 [13]: 2 µM
MIC after incubation with 100% serum [14]: 8 µM
MIC in the presence of Ca2+ [14]: 2 µM
MIC in the presence of Fe3+ [14]: 2 µM
MIC in the presence of K+ [14]: 1 µM
MIC in the presence of Mg2+ [14]: 2 µM
MIC in the presence of NH4+ [14]: 2 µM
MIC in the presence of Na+ [14]: 2 µM
MIC in the presence of Zn2+ [14]: 1 µM
MIC, Control [14]: 2 µM
cell viability [15]: ~ 50%
MHC (concentration of peptide that causes hemolysis of 50% of human red blood cells) [16]: >128 µM
Therapeutic index (TI) / selectivity index (SI), All [17]: 64.00
Therapeutic index (TI), Gram-negative bacteria [18]: 64.00
Therapeutic index (TI), Gram-positive bacteria [19]: 64.00
MIC after incubation with 100% serum [20]: 2 µM
MIC in the presence of Ca2+ [20]: 4 µM
MIC in the presence of Fe3+ [20]: 1 µM
MIC in the presence of K+ [20]: 2 µM
MIC in the presence of Mg2+ [20]: 2 µM
MIC in the presence of NH4+ [20]: 2 µM
MIC in the presence of Na+ [20]: 4 µM
MIC in the presence of Zn2+ [20]: 1 µM
MIC, Control [20]: 1 µM
